Results from ChEMBL document CHEMBL1201862, “PubChem BioAssay data set” (2004).
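Cells were grown in 96-well plates and exposed to each compound for 48 hours at five concentrations; endpoints were interpolated linearly between bracketing concentrations, or set to the highest concentration if not reached. GI50: concentration for 50% inhibition of growth.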 The source made the active and inactive calls. No stated cut-off is given here; in the data, active = GI50 up to about 1.1 µM and inactive = higher.

Columns and labels:
Experiment in all cases: NCI tumour cell line growth inhibition, 48 h
[1] = system: NCI-H23
[2] = system: SF-539
[3] = system: 786-0
[4] = system: NCI-H226
[5] = system: MDA-MB-435
[6] = system: CCRF-CEM
[7] = system: HCT-15
[8] = system: CAKI-1
[9] = system: MCF7
[10] = system: COLO 205
[11] = system: UACC-257
[12] = system: SF-268
[13] = system: U-251
[14] = system: IGROV-1
[15] = system: MOLT-4
[16] = system: HOP-62
[17] = system: SF-295
[18] = system: SW-620
[19] = system: NCI/ADR-RES
[20] = system: NCI-H522

Row | SMILES | GI50 [1] | GI50 [2] | GI50 [3] | GI50 [4] | GI50 [5] | GI50 [6] | GI50 [7] | GI50 [8] | GI50 [9] | GI50 [10] | GI50 [11] | GI50 [12] | GI50 [13] | GI50 [14] | GI50 [15] | GI50 [16] | GI50 [17] | GI50 [18] | GI50 [19] | GI50 [20]
1 | Oc1ccc(-c2cc(-c3c(O)cc(O)cc3O)on2)cc1 | > 100 µM (inactive) | 31.9 µM (inactive) | 93.5 µM (inactive) | 70.8 µM (inactive) | 56.1 µM (inactive) | 23.2 µM (inactive) | 56.8 µM | 94.6 µM (inactive) | 89.5 µM (inactive) | > 10 µM (inactive) | 97.5 µM (inactive) | 44.3 µM (inactive) | 64.7 µM (inactive) | 51.1 µM (inactive) | 38.5 µM (inactive) | > 100 µM (inactive) | 74.3 µM (inactive) | 65.6 µM (inactive) | > 100 µM (inactive) | 51.6 µM (inactive)
2 | CCCCCCCCCC(=O)NCCc1c[nH]c2ccc(OC)cc12 | 17.3 µM (inactive) | 23.2 µM (inactive) | 19.2 µM (inactive) | 19.9 µM (inactive) | 24.5 µM (inactive) | 7.26 µM (inactive) | 19.1 µM | 25.4 µM (inactive) | 17.5 µM (inactive) | 23.8 µM (inactive) | 20.8 µM (inactive) | 17.7 µM (inactive) | 17 µM (inactive) | 14.9 µM (inactive) | 64.7 µM (inactive) | 16.4 µM (inactive) | 17.4 µM (inactive) | 18.2 µM (inactive) | 19.2 µM (inactive) | 16 µM (inactive)
3 | O=C1N/C(=N\N=C\c2ccccc2)C2(CCCCC2)O1 | > 100 µM (inactive) | > 100 µM (inactive) | 64.9 µM (inactive) | 44.5 µM (inactive) | > 100 µM (inactive) | 17.8 µM (inactive) | 46.9 µM | 84.9 µM (inactive) | > 100 µM (inactive) | 93.1 µM (inactive) | > 100 µM (inactive) | > 100 µM (inactive) | 77.8 µM (inactive) | > 100 µM (inactive) | 39.3 µM (inactive) | 83.4 µM (inactive) | 55.1 µM (inactive) | > 100 µM (inactive) | 42.5 µM (inactive) | > 100 µM (inactive)
4 | CCOC(=O)[C@H]1C[C@]23CN(C(=O)OC(C)(C)C)CC[C@H]2CCC2(SCCCS2)[C@@H]3N1C | 42 µM (inactive) | 29.6 µM (inactive) | 34.5 µM (inactive) | 29.6 µM (inactive) | 37.7 µM (inactive) | 29.1 µM (inactive) | 38.1 µM | 33.8 µM (inactive) | 38.7 µM (inactive) | 28.2 µM (inactive) | 25.6 µM (inactive) | 50.4 µM (inactive) | 34.4 µM (inactive) | 49.9 µM (inactive) | 24.3 µM (inactive) | 39.9 µM (inactive) | 38.3 µM (inactive) | 47.8 µM (inactive) | 27.2 µM (inactive) | 27.5 µM (inactive)
5 | CCOC(=O)c1cccc(NC(=O)CI)c1 | 0.336 µM (active) | 0.65 µM (active) | 0.169 µM (active) | 0.601 µM (active) | 0.263 µM (active) | 0.0239 µM (active) | 0.336 µM | 0.55 µM (active) | 0.394 µM (active) | 0.531 µM (active) | 1.36 µM (inactive) | 0.67 µM (active) | 0.313 µM (active) | 0.338 µM (active) | 0.0284 µM (active) | 1.36 µM (inactive) | 2.47 µM (inactive) | 0.207 µM (active) | 0.5 µM (active) | 0.179 µM (active)
6 | O=C(NCCNCCO)N/N=C/c1ccc(Cl)cc1 | > 100 µM (inactive) | > 100 µM (inactive) | > 100 µM (inactive) | > 100 µM (inactive) | > 100 µM (inactive) | > 100 µM (inactive) | > 100 µM | > 100 µM (inactive) | > 100 µM (inactive) | > 100 µM (inactive) | > 100 µM (inactive) | > 100 µM (inactive) | > 100 µM (inactive) | > 100 µM (inactive) | > 100 µM (inactive) | > 100 µM (inactive) | > 100 µM (inactive) | > 100 µM (inactive) | > 100 µM (inactive) | > 100 µM (inactive)
7 | CCOP(=O)(/C=C\n1cc(C)c(=O)[nH]c1=O)OCC | > 100 µM (inactive) | > 100 µM (inactive) | > 100 µM (inactive) | > 100 µM (inactive) | > 100 µM (inactive) | > 100 µM (inactive) | > 100 µM | > 100 µM (inactive) | > 100 µM (inactive) | > 100 µM (inactive) | > 100 µM (inactive) | > 100 µM (inactive) | > 100 µM (inactive) | > 100 µM (inactive) | > 100 µM (inactive) | > 100 µM (inactive) | > 100 µM (inactive) | > 100 µM (inactive) | > 100 µM (inactive) | 12.1 µM (inactive)
